16 compounds from US20250206730A1 (AUTOTELIC BIO INC., priority 2022, published 2025) can be followed below.

For the assay, the system named is TGF-β signaling. Put plainly: Assay for evaluating cellular inhibition of TGF-β signaling, 4T1 (SBE-luc2P) luciferase reporter. It counts as cell-based. Conditions: Mus musculus, 4T1, 4T1 (SBE-luc2P) transient pool, 0.2% FBS, 2 h pre-treatment, TGF-β1 2 ng/mL 24 h; read-out: IC50 4T1 Cell. As for the experimental part:
[Example 2] Assay for Evaluating Cellular Inhibition of TGF-β Signaling
4T1 (SBE-luc2P) transient pool that have SBE-luc2P (hygro) expression plasmid or HEK293 (SBE reporter) stable cells (BPS bioscience) were seeded at 6×10^3 cells/well or 2.5×10^4 cells/well in 96-well plate, respectively. 4T1 (SBE-luc2P) transient pool were pre-treated with novel compound synthesized in Example 1 above in 0.2% FBS at approximately 60% confluence at 37° C. in 5% CO2. Also, HEK293 (SBE reporter) stable cells were pre-treated with each test compounds of formula in 0.5% FBS at approximately 80% confluence at 37° C. in 5% CO2. After 2 hours, cells were treated with TGF-β1 (2 ng/mL) for 24 h at 37° C. in 5% CO2. Cell lysates were prepared using Luciferase Assay (Promega) according to the manufacturer's instruction, and luminescence was measured by a plate reader, Biotek Synergy H1 (Vermont, USA).

With `NC(=O)c1cccc(Nc2cc(Oc3sc(N)nc3-c3ccccc3)ccn2)n1` [A-33, 6-((4-((2-Amino-4-phenylthiazol-5-yl)oxy)pyridin-2-yl)amino)picolinamide], the 50% inhibitory concentration (IC50) (usually the midpoint of a concentration-inhibition curve) was under 100 nM.
Then `CNC(=O)c1cccc(Nc2cc(Oc3sc(N)nc3-c3ccccc3)ccn2)c1` [A-23, 3-((4-((2-Amino-4-phenylthiazol-5-yl)oxy)pyridin-2-yl)amino)-N-methylbenzamide], with under 100 nM; and `CNS(=O)(=O)c1cccc(Nc2cc(Oc3sc(C)nc3-c3ccccc3)ccn2)c1` [A-73, N-Methyl-3-((4-((2-methyl-4-phenylthiazol-5-yl)oxy)pyridin-2-yl)amino)benzenesulfonamide], with under 100 nM.
As for `COc1cc(Nc2cc(Oc3sc(N)nc3-c3ccccc3)ccn2)ccn1` [A-24, 5-((2-((2-Methoxypyridin-4-yl)amino)pyridin-4-yl)oxy)-4-phenylthiazol-2-amine], the figure is under 100 nM.
As for `Nc1nc(-c2ccccc2)c(Oc2ccnc(NCc3ccccc3)c2)s1` [A-25, 5-((2-(Benzylamino)pyridin-4-yl)oxy)-4-phenylthiazol-2-amine], the figure is over 100 nM; as for `COC(=O)c1cccc(Nc2cc(Oc3sc(C4CC4)nc3-c3ccccc3)ccn2)n1` [A-131, Methyl 6-((4-((2-cyclopropyl-4-phenylthiazol-5-yl)oxy)pyridin-2-yl)amino)picolinate], over 100 nM.
As to `COC(=O)C(C)(C)c1cccc(Nc2cc(Oc3sc(C)nc3-c3cccc(C)n3)ccn2)c1` [A-308, Methyl 2-methyl-2-(3-((4-((2-methyl-4-(6-methylpyridin-2-yl)thiazol-5-yl)oxy)pyridin-2-yl)amino)phenyl)propanoate], the IC50 was under 100 nM.
Then `NC(=O)c1cncc(Nc2cc(Oc3sc(N)nc3-c3ccccc3)ccn2)c1` [A-32, 5-((4-((2-Amino-4-phenylthiazol-5-yl)oxy)pyridin-2-yl)amino)nicotinamide], with over 100 nM.
Then `Cc1nc(-c2ccccc2)c(Oc2ccnc(Nc3ccc(F)nc3)c2)s1` [A-83, N-(6-Fluoropyridin-3-yl)-4-((2-methyl-4-phenylthiazol-5-yl)oxy)pyridin-2-amine], with over 100 nM.
Turning to `Cc1nc(-c2ccccc2)c(Oc2ccnc(Nc3cccc(CS(C)(=O)=O)c3)c2)s1` [A-79, 4-((2-Methyl-4-phenylthiazol-5-yl)oxy)-N-(3-((methylsulfonyl)methyl)phenyl)pyridin-2-amine], the IC50 is under 100 nM.
Regarding `Cc1nc(-c2ccccc2)c(Oc2ccnc(Nc3ccnc(F)c3)c2)s1` [A-87, N-(2-Fluoropyridin-4-yl)-4-((2-methyl-4-phenylthiazol-5-yl)oxy)pyridin-2-amine], the half-inhibitory concentration (IC50) was over 100 nM.
Then `Nc1nc(-c2ccccc2)c(Oc2ccnc(NCc3ccncc3)c2)s1` [A-26, 4-Phenyl-5-((2-((pyridin-4-ylmethyl)amino)pyridin-4-yl)oxy)thiazol-2-amine], with over 100 nM; and `Cc1nc(-c2ccccc2)c(Oc2ccnc(Nc3cccc(S(=O)(=O)NC4CC4)c3)c2)s1` [A-76, N-Cyclopropyl-3-((4-((2-methyl-4-phenylthiazol-5-yl)oxy)pyridin-2-yl)amino)benzenesulfonamide], with under 100 nM.
Then `Nc1nc(-c2ccccc2)c(Oc2ccnc(Nc3cccc(S(=O)(=O)O)c3)c2)s1` [A-18, 3-((4-((2-Amino-4-phenylthiazol-5-yl)oxy)pyridin-2-yl)amino)benzenesulfonic acid], with over 100 nM.
As for `Cc1nc(-c2ccccc2)c(Oc2ccnc(Nc3cccc(S(=O)(=O)N(C)C)c3)c2)s1` [A-74, N,N-Dimethyl-3-((4-((2-methyl-4-phenylthiazol-5-yl)oxy)pyridin-2-yl)amino)benzenesulfonamide], the figure is under 100 nM; as for `COC(=O)c1cccc(Nc2cc(Oc3sc(C(C)C)nc3-c3ccccc3)ccn2)n1` [A-216, Methyl 6-((4-((2-Isopropyl-4-phenylthiazol-5-yl)oxy)pyridin-2-yl)amino)picolinate], over 100 nM.
